Like-named read-outs stand apart in the source and are kept apart here.
What was measured:
[1] = Plasma pharmacokinetics of remogliflozin etabonate and its metabolites during metformin treatment; type: in vivo, human; conditions: human, plasma, oral; for Tmax: read-out: tmax, median (range); for AUC(0-t): read-out: AUC (0-last), geometric mean (%CVb); for Cmax: read-out: Cmax, geometric mean (%CVb)
Procedure: (§1) PK analysis was conducted by […] (Chapel Hill, NC, USA), under the direction of Clinical Pharmacokinetics/Modelling and Simulation, GSK using the non-compartmental analysis Model 200 (for extra vascular administration) of WinNonlin Professional Edition version 4.1 (Pharsight Corporation, Mountain View, CA). […] Descriptive statistics were used to summarize baseline demographics, safety data, and pharmacokinetic parameters. Geometric mean and % CVb (between-subject coefficient of variation) were calculated for all pharmacokinetic parameters except tmax. Comparisons of placebo with each active dose of RE were assessed in terms of change from baseline in fasting plasma lactate acid using repeated measures analysis of covariance model. The model included terms for baseline measurement, visit, treatment and visit-by-treatment interaction. The same model was applied to change from baseline in weighted means of day-time, night-time and 0-24 h of blood pressures. Within group treatment comparison was performed using mixed model on log transformed Cmax and AUC (0-last).

subjects with T2DM [2] = assay: Surveillance for lactic acidosis: fasting plasma lactic acid concentration; type: in vivo, human
Procedure: The samples for acidosis analysis were collected at screening (following an overnight fast and prior to morning dose), once during the run-in phase, at baseline (Day- 1), mornings (prior to first dose and breakfast) of Days 1, 2, 3, and 4 (inpatient) and Days 6, 8, and 10 (outpatient) and Days 13 and 14 (inpatient). Subjects were not allowed to do rigorous exercise or physical labor during the treatment phase of the study and instructed to limit exercise 12 h before sampling.
Descriptive statistics were used to summarize baseline demographics, safety data, and pharmacokinetic parameters. Geometric mean and % CVb (between-subject coefficient of variation) were calculated for all pharmacokinetic parameters except tmax. Comparisons of placebo with each active dose of RE were assessed in terms of change from baseline in fasting plasma lactate acid using repeated measures analysis of covariance model. The model included terms for baseline measurement, visit, treatment and visit-by-treatment interaction. The same model was applied to change from baseline in weighted means of day-time, night-time and 0–24 h of blood pressures. Within group treatment comparison was performed using mixed model on log transformed Cmax and AUC (0-last).

[3] = design: method as in PMID 25934577; conditions: repeat dosing PK; cited from earlier work
[4] = Plasma pharmacokinetics of metformin with and without RE; type: in vivo, human; conditions: RE 500 mg or 750 mg BID with metformin
Procedure: as §1

subjects with T2DM [5] = conditions: RE 500 mg BID and metformin 500 mg BID for 3 days; cited from earlier work
subjects with T2DM [6] = assay: Oral glucose tolerance test (75 g): weighted mean plasma glucose and insulin; type: in vivo, human; conditions: Day -1 (baseline)
Body weight = type: in vivo, human; conditions: for Change from baseline in body weight, Mean (SD): Day 2
Procedure: Body weight measurement was performed at screening and during inpatient Days- 1, 2, 4, 8, 13, and 14.

T2DM patients = test system: T2DM patients; design: method as in PMID 32162274; conditions: T2DM patients on daily metformin therapy (> 1500 mg) over 24 weeks; cited from earlier work
[7] = 500 mg, Day 13, after RE 500 mg BID + metformin, N = 15
[8] = 750 mg, Day 1, after RE 750 mg BID + metformin, N = 17
[9] = 750 mg, Day 13, after RE 750 mg BID + metformin, N = 16
[10] = Study Day 2, RE 750 mg BID + metformin
[11] = Study Day 6, RE 750 mg BID + metformin

CCOC(=O)OC[C@H]1O[C@@H](Oc2nn(C(C)C)c(C)c2Cc2ccc(OC(C)C)cc2)[C@H](O)[C@@H](O)[C@@H]1O [RE, remogliflozin etabonate]
Tmax ([1]; 500 mg, Day 1, after RE 500 mg BID + metformin, N = 16): 37.8 min
AUC(0-t) ([1]; 500 mg, Day 13, RE 500 mg BID + metformin, N = 15): 73.5 ng·h/mL
Cmax [1, 7]: 53.3 ng/mL
Tmax [1, 7]: 30 min
AUC(0-t) ([1]; 750 mg, Day 1, RE 750 mg BID + metformin, N = 17): 121 ng·h/mL
Cmax [1, 8]: 137 ng/mL
Tmax [1, 8]: 30 min
AUC(0-t) ([1]; 750 mg, Day 13, RE 750 mg BID + metformin, N = 16): 121 ng·h/mL
Cmax [1, 9]: 101 ng/mL
Tmax [1, 9]: 28.8 min
Fasting plasma lactic acid, maximum on-therapy absolute values, Mean (SD) (subjects with T2DM [2]; RE 500 mg BID + metformin): 1.220 (0.2684) mmol/L
Fasting plasma lactic acid, maximum on-therapy change from baseline, Mean (SD) (subjects with T2DM [2]; RE 500 mg BID + metformin): 0.234 (0.3717) mmol/L
Fasting plasma lactic acid, maximum on-therapy absolute values, Mean (SD) (subjects with T2DM [2]; RE 750 mg BID + metformin): 1.508 (0.4389) mmol/L
Fasting plasma lactic acid, maximum on-therapy change from baseline, Mean (SD) (subjects with T2DM [2]; RE 750 mg BID + metformin): 0.249 (0.5934) mmol/L
Fasting plasma lactic acid change from baseline, Mean (SD) (subjects with T2DM [2]; Study Day 2, RE 500 mg BID + metformin): −0.07 (0.248) mmol/L
Fasting plasma lactic acid change from baseline, Difference vs. placebo (95% CI), ANCOVA (subjects with T2DM [2]; [10]): −0.246(− 0.445, − 0.047) mmol/L
Fasting plasma lactic acid change from baseline, Mean (SD) (subjects with T2DM [2]; [10]): −0.17 (0.419) mmol/L
Fasting plasma lactic acid change from baseline, Difference vs. placebo (95% CI), ANCOVA (subjects with T2DM [2]; Study Day 6, RE 500 mg BID + metformin): −0.380 (− 0.603, − 0.157) mmol/L
Fasting plasma lactic acid change from baseline, Mean (SD) (subjects with T2DM [2]; Study Day 6, RE 500 mg BID + metformin, n = 15): −0.26 (0.310) mmol/L
Fasting plasma lactic acid change from baseline, Difference vs. placebo (95% CI), ANCOVA (subjects with T2DM [2]; [11]): −0.254(− 0.472, − 0.036) mmol/L
Fasting plasma lactic acid change from baseline, Mean (SD) (subjects with T2DM [2]; [11]): −0.26 (0.538) mmol/L
Fasting plasma lactic acid change from baseline, Difference vs. placebo (95% CI), ANCOVA (subjects with T2DM [2]; Study Day 13, RE 500 mg BID + metformin): −0.191 (− 0.414, 0.031) mmol/L
Fasting plasma lactic acid change from baseline, Mean (SD) (subjects with T2DM [2]; Study Day 13, RE 500 mg BID + metformin, n = 15): −0.15 (0.485) mmol/L
Fasting plasma lactic acid change from baseline, Difference vs. placebo (95% CI), ANCOVA (subjects with T2DM [2]; Study Day 13, RE 750 mg BID + metformin): −0.255 (− 0.475, − 0.034) mmol/L
Fasting plasma lactic acid change from baseline, Mean (SD) (subjects with T2DM [2]; Study Day 13, RE 750 mg BID + metformin, n = 16): −0.33 (0.398) mmol/L
Subjects with lactic acid greater than the upper limits of normal (ULN) at any time (subjects with T2DM [2]; receiving RE, not sustained, minimally above ULN): one
Increase in AUC on repeat dosing [3]: 10%
Increase in t1/2 on repeat dosing [3]: 10%
Effect of RE on the pharmacokinetics of metformin [4]: no effect
Effect of RE on the steady-state plasma profiles of metformin (subjects with T2DM [5]): no effect
Tolerability of concomitant administration (subjects with T2DM [5]): well tolerated
Weighted mean plasma insulin following OGTT, Mean (SD) (subjects with T2DM [6]; RE 500 mg + Metformin): 190.96 (100.420) pmol/L
Weighted mean plasma insulin following OGTT, Mean (SD) (subjects with T2DM [6]; RE 750 mg + Metformin): 191.52 (83.045) pmol/L
Change from baseline in body weight, Mean (SD) (Body weight; RE 500 mg + Metformin): −1.03 (0.994) kg
Change from baseline in body weight, Mean (SD) (Body weight; RE 750 mg + Metformin): −1.04 (1.210) kg
Additional body weight lost in the RE groups compared to metformin alone (Body weight; by Day 14, RE 500 or 750 mg BID + metformin vs placebo + metformin): ~1 kg
Glycemic efficacy (T2DM patients): comparable to dapagliflozin

Reference: PMC8201735 (BMC Pharmacology & Toxicology, 2021)
